# Legend:
# [1] = tested on: foxtail, giant (giant foxtail, Setaria faberii); test: Test A preemergence foxtail, giant; type: in vivo; settings: Setaria faberi, pre-emergence, 240 h, 0 to 100 scale, 0 no effect, 100 complete control, read-out: Foxtail, Giant plant response rating
# How it was run: (§1)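 Scores reflect visual comparison with untreated controls after ~10 d in the greenhouse (0 none, 100 complete control). Treatment was a surfactant-containing non-phytotoxic solvent formulation, sprayed onto soil after seeding or onto seedlings at one to two leaves, 2–10 cm tall.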
# [2] = tested on: sedge, umbrella (small-flower umbrella sedge, Cyperus difformis); test: Test C flooded paddy test sedge, umbrella; type: in vivo; settings: Table C, Flood, scale 0 to 100
# How it was run: (§2)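 Scores express visual response relative to untreated controls, 0 meaning no effect and 100 complete control, assessed 13 to 15 d after treatment in the greenhouse. Compound went into water flooded 3 cm above soil around 2-leaf plants.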
# [3] = tested on: ragweed (common ragweed, Ambrosia elatior); test: Test A preemergence ragweed; type: in vivo; settings: Ambrosia artemisiifolia, pre-emergence, 240 h, 0 to 100 scale, 0 no effect, 100 complete control, read-out: Ragweed plant response rating
# How it was run: as §1
# [4] = tested on: ryegrass, Italian (Italian ryegrass, Lolium multiflorum); test: Test A preemergence ryegrass, Italian; type: in vivo; settings: Lolium multiflorum, pre-emergence, 240 h, 0 to 100 scale, 0 no effect, 100 complete control, read-out: Ryegrass, Italian plant response rating
# How it was run: as §1
# [5] = tested on: barnyardgrass (Echinochloa crus-galli); test: Test A postemergence barnyardgrass; type: in vivo; settings: Echinochloa crus-galli, post-emergence, 240 h, 0 to 100 scale, 0 is no effect, 100 is complete control, read-out: Plant response rating, Barnyardgrass
# How it was run: as §1
# [6] = tested on: barnyardgrass (Echinochloa crus-galli); test: Test C flooded paddy test barnyardgrass; type: in vivo; settings: Table C, Flood, scale 0 to 100
# How it was run: as §2
# [7] = tested on: wheat (Triticum aestivum); test: Test A postemergence wheat; type: in vivo; settings: Triticum aestivum, post-emergence, 240 h, 0 to 100 scale, 0 is no effect, 100 is complete control, read-out: Plant response rating, Wheat
# How it was run: as §1
# [8] = tested on: pigweed (Amaranthus retroflexus); test: Test A postemergence pigweed; type: in vivo; settings: Amaranthus retroflexus, post-emergence, 240 h, 0 to 100 scale, 0 is no effect, 100 is complete control, read-out: Plant response rating, Pigweed
# How it was run: as §1
# [9] = tested on: barnyardgrass (Echinochloa crus-galli); test: Test A preemergence barnyardgrass; type: in vivo; settings: 0 to 100 scale
# How it was run: as §1
# [10] = tested on: ragweed (common ragweed, Ambrosia elatior); test: Test A postemergence ragweed; type: in vivo; settings: Ambrosia artemisiifolia, post-emergence, 240 h, 0 to 100 scale, 0 is no effect, 100 is complete control, read-out: Plant response rating, Ragweed
# How it was run: as §1
# [11] = tested on: pigweed (Amaranthus retroflexus); test: Test A preemergence pigweed; type: in vivo; settings: Amaranthus retroflexus, pre-emergence, 240 h, 0 to 100 scale, 0 no effect, 100 complete control, read-out: Pigweed plant response rating
# How it was run: as §1
# rice (Oryza sativa) = test: Test C flooded paddy test rice; type: in vivo; settings: Table C, Flood, scale 0 to 100
# How it was run: as §2
# [12] = tested on: blackgrass (Alopecurus myosuroides); test: Test A postemergence blackgrass; type: in vivo; settings: Alopecurus myosuroides, post-emergence, 240 h, 0 to 100 scale, 0 is no effect, 100 is complete control, read-out: Plant response rating, Blackgrass
# How it was run: as §1
# [13] = tested on: ducksalad (Heteranthera limosa); test: Test C flooded paddy test ducksalad; type: in vivo; settings: Table C, Flood, scale 0 to 100
# How it was run: as §2
# [14] = tested on: galium (catchweed bedstraw, Galium aparine); test: Test A postemergence galium; type: in vivo; settings: Galium, post-emergence, 240 h, 0 to 100 scale, 0 is no effect, 100 is complete control, read-out: Plant response rating, Galium
# How it was run: as §1
# kochia (Kochia scoparia) [15] = test: Test A postemergence kochia; type: in vivo; settings: Bassia scoparia, post-emergence, 240 h, 0 to 100 scale, 0 is no effect, 100 is complete control, read-out: Plant response rating, Kochia
# How it was run: as §1
# corn (Zea mays) = test: Test A postemergence corn; type: in vivo; settings: Zea mays, post-emergence, 240 h, 0 to 100 scale, 0 is no effect, 100 is complete control
# How it was run: as §1
# [16] = tested on: foxtail, giant (giant foxtail, Setaria faberii); test: Test A postemergence foxtail, giant; type: in vivo; settings: Setaria faberi, post-emergence, 240 h, 0 to 100 scale, 0 is no effect, 100 is complete control, read-out: Plant response rating, Foxtail, Giant
# How it was run: as §1
# [17] = tested on: ryegrass, Italian (Italian ryegrass, Lolium multiflorum); test: Test A postemergence ryegrass, Italian; type: in vivo; settings: Lolium multiflorum, post-emergence, 240 h, 0 to 100 scale, 0 is no effect, 100 is complete control, read-out: Plant response rating, Ryegrass, Italian
# How it was run: as §1
# kochia (Kochia scoparia) [18] = test: Test A preemergence kochia; type: in vivo; settings: Bassia scoparia, pre-emergence, 240 h, 0 to 100 scale, 0 no effect, 100 complete control, read-out: Kochia plant response rating
# How it was run: as §1
compound,measurement,setting,value
"O=C1NCCC(c2ccc(C(F)(F)F)cc2)C1C(=O)Nc1cccc(F)c1F (stereo not shown) [Compound 11, N-(2,3-difluorophenyl)-2-oxo-4-[4-(trifluoromethyl)phenyl]-3-piperidinecarboxamide]",pest or weed control at 125 g/ha,[1]; 125 g ai/ha,70%
same,pest or weed control at 500 g/ha,[1]; 500 g ai/ha,90%
same,Plant response rating,[2]; 125 g ai/ha,0
same,Plant response rating,[2]; 250 g ai/ha,0
same,Plant response rating,[2]; 500 g ai/ha,0
same,Plant response rating,[2]; 1000 g ai/ha,0
same,pest or weed control at 125 g/ha,[3]; 125 g ai/ha,40%
same,pest or weed control at 500 g/ha,[3]; 500 g ai/ha,80%
same,melting point,,180 to 182 °C
same,pest or weed control at 125 g/ha,[4]; 125 g ai/ha,0%
same,pest or weed control at 500 g/ha,[4]; 500 g ai/ha,0%
same,pest or weed control at 125 g/ha,[5]; 125 g ai/ha,70%
same,pest or weed control at 500 g/ha,[5]; 500 g ai/ha,90%
same,Plant response rating,[6]; 125 g ai/ha,10
same,Plant response rating,[6]; 250 g ai/ha,20
same,Plant response rating,[6]; 500 g ai/ha,50
same,Plant response rating,[6]; 1000 g ai/ha,70
same,plant injury at 125 g/ha,[7]; 125 g ai/ha,0%
same,plant injury at 500 g/ha,[7]; 500 g ai/ha,50%
same,pest or weed control at 125 g/ha,[8]; 125 g ai/ha,0%
same,pest or weed control at 500 g/ha,[8]; 500 g ai/ha,30%
same,"Plant response rating, Barnyardgrass","[9]; 500 g ai/ha, 0 is no effect, 100 is complete control",90
same,pest or weed control at 125 g/ha,"[9]; Echinochloa crus-galli, pre-emergence, 240 h, 125 g ai/ha, 0 no effect, 100 complete control, read-out: Barnyardgrass plant response rating",60%
same,pest or weed control at 125 g/ha,[10]; 125 g ai/ha,0%
same,pest or weed control at 500 g/ha,[10]; 500 g ai/ha,20%
same,pest or weed control at 125 g/ha,[11]; 125 g ai/ha,0%
same,pest or weed control at 500 g/ha,[11]; 500 g ai/ha,40%
same,Plant response rating,rice (Oryza sativa); 125 g ai/ha,0
same,Plant response rating,rice (Oryza sativa); 250 g ai/ha,0
same,Plant response rating,rice (Oryza sativa); 500 g ai/ha,0
same,Plant response rating,rice (Oryza sativa); 1000 g ai/ha,0
same,pest or weed control at 125 g/ha,[12]; 125 g ai/ha,20%
same,pest or weed control at 500 g/ha,[12]; 500 g ai/ha,50%
same,Plant response rating,[13]; 125 g ai/ha,30
same,Plant response rating,[13]; 250 g ai/ha,80
same,Plant response rating,[13]; 500 g ai/ha,95
same,Plant response rating,[13]; 1000 g ai/ha,100
same,pest or weed control at 125 g/ha,[14]; 125 g ai/ha,40%
same,pest or weed control at 500 g/ha,[14]; 500 g ai/ha,60%
same,pest or weed control at 125 g/ha,kochia (Kochia scoparia) [15]; 125 g ai/ha,20%
same,pest or weed control at 500 g/ha,kochia (Kochia scoparia) [15]; 500 g ai/ha,50%
same,"Corn plant response rating (crop injury, 0 = no effect, 100 = complete kill) at 125 g/ha",corn (Zea mays); 125 g ai/ha,0%
same,"Corn plant response rating (crop injury, 0 = no effect, 100 = complete kill) at 500 g/ha",corn (Zea mays); 500 g ai/ha,40%
same,pest or weed control at 125 g/ha,[16]; 125 g ai/ha,80%
same,pest or weed control at 500 g/ha,[16]; 500 g ai/ha,90%
same,pest or weed control at 125 g/ha,[17]; 125 g ai/ha,0%
same,pest or weed control at 500 g/ha,[17]; 500 g ai/ha,30%
same,pest or weed control at 125 g/ha,kochia (Kochia scoparia) [18]; 125 g ai/ha,0%
same,pest or weed control at 500 g/ha,kochia (Kochia scoparia) [18]; 500 g ai/ha,60%

# Source: US9944602B2, “Piperidinone herbicides” (E. I. DU PONT DE NEMOURS AND COMPANY, priority 2014, dated 2018)
